Target: T1, iPLA2β (Cricetulus griseus, UniProt A0A3L7I2I8)
T1 construct: (His)6; made in house; host or cells: Sf9 insect cells (baculovirus)
T1 sequence (A0A3L7I2I8 1-752 isoform A0A3L7I2I8-2): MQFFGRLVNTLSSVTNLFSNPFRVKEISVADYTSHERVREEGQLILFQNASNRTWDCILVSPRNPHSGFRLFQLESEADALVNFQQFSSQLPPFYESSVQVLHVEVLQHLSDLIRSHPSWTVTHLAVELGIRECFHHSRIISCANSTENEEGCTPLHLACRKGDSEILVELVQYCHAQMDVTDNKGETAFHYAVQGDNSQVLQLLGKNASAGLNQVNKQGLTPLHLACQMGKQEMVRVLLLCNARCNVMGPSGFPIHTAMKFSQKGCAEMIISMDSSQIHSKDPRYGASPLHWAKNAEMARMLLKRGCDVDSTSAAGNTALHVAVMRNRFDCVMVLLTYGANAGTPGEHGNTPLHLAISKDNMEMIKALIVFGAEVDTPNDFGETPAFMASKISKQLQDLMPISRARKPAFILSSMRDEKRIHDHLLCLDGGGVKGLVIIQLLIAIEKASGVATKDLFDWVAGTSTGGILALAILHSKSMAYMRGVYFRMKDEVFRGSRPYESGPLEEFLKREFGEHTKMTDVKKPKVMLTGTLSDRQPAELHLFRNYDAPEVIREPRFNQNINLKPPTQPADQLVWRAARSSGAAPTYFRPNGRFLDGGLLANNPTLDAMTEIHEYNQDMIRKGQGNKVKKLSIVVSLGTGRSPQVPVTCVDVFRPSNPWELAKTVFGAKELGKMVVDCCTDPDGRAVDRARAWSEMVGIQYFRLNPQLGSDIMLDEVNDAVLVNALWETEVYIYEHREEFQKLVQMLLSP
Test: Covalent acylation (autoacylation) of iPLA2β with [14C]-long chain acyl-CoAs
Format: biochemical
Method: FIG. 5—Equivalent amounts of the indicated [1-^14C]-acyl-CoA guests (5 mol %) were incorporated into host POPC (100 μM) vesicles and incubated for 1 hr at 37° C. with equal amounts of either wild-type (WT) iPLA2β(His)6 (peptide disclosed as SEQ ID NO: 4), S465A iPLA2β(His)6 (peptide disclosed as SEQ ID NO: 4), or BEL-pretreated WT iPLA2β(His)6 (peptide disclosed as SEQ ID NO: 4) enzyme as described in Experimental Procedures. Samples were resolved by SDS-PAGE (10% gel), fixed, and dried before visualization by autoradiography.
FIG. 6—Purified iPLA2β(His)6 (peptide disclosed as SEQ ID NO: 4) (2 μM) was incubated with the indicated concentrations of [1-^14C]-oleoyl-CoA present as guest in host POPC (100 μM) vesicles for 1 hr at 37° C. Samples were electrophoresed in parallel with standard amounts (0.5-10 nCi) of [^14C]-BSA of known activity (not shown). The fixed and dried gel was exposed to film and the resultant signals from the [^14C]-BSA were utilized to generate a standard curve utilizing ID software from a Kodak Imagestation to determine the incorporation of [1-^14C]-oleate into iPLA2β.
FIG. 7—Purified iPLA2β(His)6 (peptide disclosed as SEQ ID NO: 4) was incubated with [1-^14C]-oleoyl CoA (10 mol %) incorporated as guest in host POPC vesicles. N-ethylmaleimide and iodoacetamide samples were pretreated with 5 mM of either reagent for 5 min at 30° C. before addition of [1-^14C]-oleoyl-CoA. Samples were incubated with 1 N HCl, 1 N NaOH, or 2 N neutral hydroxylamine for 1 hr at 30° C. as indicated. All samples, except lane 1, were precipitated with CHCl3/MeOH and washed with 70% acetone before SDS-PAGE and autoradiography as described in Experimental Procedures.
FIG. 10—Purified iPLA2β(His)6 (peptide disclosed as SEQ ID NO: 4) was incubated with [1-^14C]-oleoyl CoA (10 mol %) incorporated as guest in host POPC vesicles in the presence of EGTA (5 mM), Ca^2+ (1 mM), CaM (3 μg), or Ca^2+-CaM for 1 h at 37° C. Samples were resolved by SDS-PAGE and the gel was soaked in Amplify fluorographic reagent, dried, and exposed to film as described in Experimental Procedures.
Covalent Modification of […] with [^14C]-long chain Acyl CoAs—Purified recombinant iPLA2β(His)6 (peptide disclosed as SEQ ID NO: 4) was incubated with POPC vesicles containing 10 mol % [1-^14C]-acyl-CoA for 1 h at 37° C. […] Chloroform/methanol precipitation of some samples was performed as described (66) utilizing 15 μg of bovine serum albumin as carrier. In tests to examine the nature of the covalent linkage between oleic acid and iPLA2β, acid (HCl), base (NaOH), and hydroxylamine were added to the indicated concentrations and the samples were incubated at 30° C. for 1 h. Bovine serum albumin (15 μg) and SDS-PAGE loading buffer were then added to each sample prior to dialysis against 50 mM Tris-HCl, pH 6.8 containing 10% glycerol and 1% SDS for 4 h. Samples were electrophoresed by SDS-PAGE, fixed (40% methanol containing 10% acetic acid), stained with Coomassie Blue R-250, incubated in Amplify fluorographic reagent, dried, and exposed to Kodak Biomax MR film for 2-5 days at −80° C.

[1-14C]-oleic acid incorporated per mole of iPLA2β (POPC vesicles, up to 5-fold molar excess of oleoyl-CoA, FIG. 6): approximately 1 mole
radiolabeling of iPLA2β, fold greater than saturated counterparts (wild-type iPLA2β, FIG. 5): 10-100 fold
Compound: CCCCCCCC/C=C\CCCCCCCC(=O)SCCNC(=O)CCNC(=O)[C@H](O)C(C)(C)COP(=O)(O)OP(=O)(O)OC[C@H]1O[C@@H](n2cnc3c(N)ncnc32)[C@H](O)[C@@H]1OP(=O)(O)O [oleoyl-CoA]

From patent US8148097B2, “Screening method for identification of compounds with calcium-independent phospholipase A2β (iPLA2β) modulating activity” (Washington University, priority 2005, dated 2012)
